Data set [1] has as its system obese model mice fed with a high-fat diet. Briefly: Effect of astaxanthin monoester on obese model mice fed with a high-fat diet. Format: in vivo, male C57BL/6J strain mice. On the procedure:
Astaxanthin was administered to obese model mice fed with a high-fat diet, and the change in body weight, the amount of subcutaneous fat (in the inguinal region and the back), the amount of visceral fat (around the reproductive organs and around the kidney), and the liver weight were examined in the following manner.
Four week old male C57BL/6J strain mice (SPF) purchased from CHARLES RIVER LABORATORIES JAPAN, INC. were used. The mice were preliminarily fed for 8 days and used for the test after they reached the age of 5 weeks. The mice were divided into three groups of 8 each, that is, a normal diet group, a high-fat diet group, and a high-fat diet+astaxanthin (AX) group, so that the average body weight was equal among the groups.
During the preliminary feeding period, the mice were given an ordinary powder diet (MF, Oriental Yeast Co., Ltd.), and during the test period of 16 weeks, the mice were given the ordinary powder diet or a high-fat diet having the composition shown in Table 1 below. As to drinking water, the mice were allowed to drink freely sterile distilled water from a water supply bottle.
The astaxanthin monoester prepared in Preparation Example 1 was dissolved in an olive oil (Wako Pure Chemical Industries, Ltd.) to prepare a solution containing astaxanthin monoester at a concentration of 60 mg/mL. This solution was administered to the high-fat diet+AX group and the olive oil to the other two groups in a volume of 0.05 mL/10 g body weight every day for 16 weeks from the start of the test (at the age of 5 weeks) to the age of 21 weeks, using a probe for oral administration in the mice.
During the test period, the body weight was measured once a week using a scale. At the end of the test, the body weight was measured, and thereafter, the mice were fasted overnight and sacrificed by collecting blood from the heart. Then, the liver, the adipose tissue in the inguinal region, the adipose tissue around the reproductive organs, the adipose tissue around the kidney, and the adipose tissue in the back were collected and the weights thereof were measured.
The different types of data obtained were expressed as average values±standard errors for each group. In order to test for statistically significant differences between the high-fat diet group and the high-fat diet+AX group or the normal diet group, a multiple comparison test (ANOVA) was performed using an analysis software (Stat View, Abacus Inc., USA), and a comparison between the groups was performed using Fisher's PLSD multiple comparison test. Differences were considered statistically significant when p<0.05.

Data set [2] relates to Human umbilical vein endothelial cells (HUVECs). As to the kind of experiment: Measurement of 50% lethal concentration for HUVEC (alamarBlue). Format: cell-based. How it is done: Human umbilical vein endothelial cells (HUVECs) (ATCC CRL-1730) were obtained from American Type Culture Collection and precultivated in an Endothelial Cell Growth Medium (CELL APPLICATIONS, USA) containing 10% bovine fetal serum supplemented with 1% Antibiotic-Antimycotic (GIBCO BRL, USA) under a 5% CO2 atmosphere at 37° C.
A Matrigel matrix (BD Biosciences, USA) was melted and kept at 4° C. on ice, and then, 50 μL of the matrix were transferred to each well of a 96-well tissue culture plate. The plate was incubated at 37° C. for at least one hour to solidify the matrix solution.
On the other hand, the astaxanthin monoester obtained in Preparation Example 1 was dissolved in dimethylsulfoxide (DMSO), and then diluted with distilled water to prepare stock test solutions in which the astaxanthin monoester was contained in 40 (v/v) % DMSO at 25000, 2500, 250, 25, and 2.5 μM, respectively. […]
After the incubation, 20 μL of a 90% alamarBlue reagent were added to individual wells, and incubated for an additional 6 hours. Then, the fluorescence intensity of each well was measured at an excitation wavelength of 530 nm and an emission wavelength of 590 nm using a Spectrafluor Plus plate reader to count the number of living cells. […] The 50% lethal concentration was calculated as the concentration at which the number of living cells was 50% of the number of cells at the start of the experiment.
(In general: Alamar Blue is a resazurin reagent that responds to reducing activity.)

Setting [3] is: high-fat diet+AX vs high-fat diet group, oral daily for 16 weeks, end of test, FIG. 2.
Setting [4] is: high-fat diet+AX vs high-fat diet group, oral daily for 16 weeks, end of test, FIG. 3.

For astaxanthin monoester, in data set [1] (high-fat diet+AX group vs high-fat diet group, oral, 60 mg/mL in olive oil, 0.05 mL/10 g body weight every day for 16 weeks, FIG. 1), the “increase in body weight” value is listed as “tended to be distinctly suppressed”. For the same substance, in data set [1] (setting [3]), the “amount of fat accumulation in subcutaneous fat (weight)” value is reported as “significantly suppressed” and the “amount of fat accumulation in visceral fat (weight)” value was “significantly suppressed”. In data set [1] (setting [4]), the “proportion of the liver weight to body weight” value is listed as “approached that in the case of the normal diet” and the “proportions of all of the adipose tissues to body weight (increase)” value is recorded as “significantly suppressed”. The LC50 in data set [2] (72 hours incubation, 250 μM = maximum concentration dissolved in DMSO) was ≥ 250 µM. In addition, in data set [2] (conclusion from the LC50 for HUVECs), the toxicity entry is reported as “low”.

For orientation: LC50 means the concentration lethal to half of the exposed cells or organisms. Higher therefore signals a less lethal substance.

The record behind these values is US20070129436A1, “Agent for Suppressing Body Fat Accumulation” (YAMAHA HATSUDOKI KABUSHIKI KAISHA, priority 2005, published 2007).
